Assay: Solubility of AP-325 in different solvents at ambient temperature
Type: physicochemical
Excerpt: AP-325 is a pharmaceutical agent, which is currently in clinical development. […] For a better characterization of active ingredients with low solubility, a classification according to the BCS system (=Biopharmaceutics Classification System) was introduced (Guidance for Industry: Immediate release solid oral dosage forms and FDA, 1995). This BCS system distinguishes four categories based on the solubility and permeability of the active substance. At a pH value of below 7 AP-325 can be classified as a BCS class II drug substance. The low solubility of AP-325 negatively affects the absorption into the body after oral administration due to a limited absorption of the active agent in the small intestine (such as the jejunum or ileum), which is an essential absorption window for the uptake of a drug. Consequently, the therapeutic effect cannot be achieved.
FIG. 3: Solubility of AP-325 in different solvents at ambient temperature.

BCS classification (pH value of below 7): BCS class II
Solubility (physiological pH of 6.8 (phosphate buffer), ambient temperature): practically insoluble
SMILES: Cc1cc(NC(=O)/C(C#N)=C(\O)C2CC2)ccc1C(F)(F)F [AP-325]
